# From patent US11739098B2 (BRISTOL-MYERS SQUIBB COMPANY, priority 2017, dated 2023)
# Key:
# Type in all cases: cell-based
# human TLR8 = target: T1, human TLR8 (Homo sapiens, UniProt Q9NR97); assay: TLR8 inhibition reporter assay (HEK-Blue cells, SEAP reporter, R848 stimulation); details: HEK-Blue cells overexpressing human TLR8, SEAP reporter, R848 15.9 μM
# T1 construct: host or cells: HEK-Blue cells (HEK293-derived reporter line)
# T1 sequence (Q9NR97 27-1041): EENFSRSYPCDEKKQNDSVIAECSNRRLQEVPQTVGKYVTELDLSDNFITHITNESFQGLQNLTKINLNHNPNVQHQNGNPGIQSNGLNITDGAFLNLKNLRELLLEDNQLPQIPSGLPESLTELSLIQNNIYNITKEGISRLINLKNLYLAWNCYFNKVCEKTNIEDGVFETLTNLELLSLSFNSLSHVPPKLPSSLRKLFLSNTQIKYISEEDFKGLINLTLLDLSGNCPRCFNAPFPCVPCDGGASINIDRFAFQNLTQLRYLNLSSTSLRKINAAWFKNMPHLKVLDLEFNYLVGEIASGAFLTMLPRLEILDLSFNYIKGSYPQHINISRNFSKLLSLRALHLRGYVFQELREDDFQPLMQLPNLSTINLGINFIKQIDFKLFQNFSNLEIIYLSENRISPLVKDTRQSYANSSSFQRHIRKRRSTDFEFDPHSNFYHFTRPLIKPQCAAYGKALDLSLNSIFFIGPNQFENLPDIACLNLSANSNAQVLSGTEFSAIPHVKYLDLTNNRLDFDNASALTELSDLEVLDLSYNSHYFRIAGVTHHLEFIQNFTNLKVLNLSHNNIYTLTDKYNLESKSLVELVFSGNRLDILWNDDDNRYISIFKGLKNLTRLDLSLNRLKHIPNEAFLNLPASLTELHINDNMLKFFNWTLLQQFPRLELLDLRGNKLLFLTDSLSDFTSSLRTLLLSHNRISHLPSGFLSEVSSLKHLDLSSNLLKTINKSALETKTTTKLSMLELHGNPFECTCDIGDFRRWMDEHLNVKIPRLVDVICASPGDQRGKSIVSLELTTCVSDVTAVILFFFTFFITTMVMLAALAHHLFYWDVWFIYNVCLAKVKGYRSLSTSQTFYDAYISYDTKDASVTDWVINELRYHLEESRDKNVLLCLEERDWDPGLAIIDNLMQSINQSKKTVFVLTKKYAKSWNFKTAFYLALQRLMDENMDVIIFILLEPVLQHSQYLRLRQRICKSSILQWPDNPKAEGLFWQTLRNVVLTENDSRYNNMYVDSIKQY
# Outline: (§1)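 Read-out is SEAP activity in HEK-Blue detection medium after 22 h at 37 °C, converted to percent inhibition against agonist-plus-DMSO and reference-inhibitor controls. Cells saw compound (0.05 nM–50 μM, 30 min, room temperature) before gardiquimod 7.5 μM, R848 15.9 μM or ODN2006 5 nM for TLR7, TLR8 and TLR9, respectively.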
# human TLR9 = target: T2, human TLR9 (Homo sapiens, UniProt Q9NR96); assay: TLR9 inhibition reporter assay (HEK-Blue cells, SEAP reporter, ODN2006 stimulation); details: HEK-Blue cells overexpressing human TLR9, SEAP reporter, ODN2006 5 nM
# T2 construct: host or cells: HEK-Blue cells (HEK293-derived reporter line)
# T2 sequence (Q9NR96 26-1032): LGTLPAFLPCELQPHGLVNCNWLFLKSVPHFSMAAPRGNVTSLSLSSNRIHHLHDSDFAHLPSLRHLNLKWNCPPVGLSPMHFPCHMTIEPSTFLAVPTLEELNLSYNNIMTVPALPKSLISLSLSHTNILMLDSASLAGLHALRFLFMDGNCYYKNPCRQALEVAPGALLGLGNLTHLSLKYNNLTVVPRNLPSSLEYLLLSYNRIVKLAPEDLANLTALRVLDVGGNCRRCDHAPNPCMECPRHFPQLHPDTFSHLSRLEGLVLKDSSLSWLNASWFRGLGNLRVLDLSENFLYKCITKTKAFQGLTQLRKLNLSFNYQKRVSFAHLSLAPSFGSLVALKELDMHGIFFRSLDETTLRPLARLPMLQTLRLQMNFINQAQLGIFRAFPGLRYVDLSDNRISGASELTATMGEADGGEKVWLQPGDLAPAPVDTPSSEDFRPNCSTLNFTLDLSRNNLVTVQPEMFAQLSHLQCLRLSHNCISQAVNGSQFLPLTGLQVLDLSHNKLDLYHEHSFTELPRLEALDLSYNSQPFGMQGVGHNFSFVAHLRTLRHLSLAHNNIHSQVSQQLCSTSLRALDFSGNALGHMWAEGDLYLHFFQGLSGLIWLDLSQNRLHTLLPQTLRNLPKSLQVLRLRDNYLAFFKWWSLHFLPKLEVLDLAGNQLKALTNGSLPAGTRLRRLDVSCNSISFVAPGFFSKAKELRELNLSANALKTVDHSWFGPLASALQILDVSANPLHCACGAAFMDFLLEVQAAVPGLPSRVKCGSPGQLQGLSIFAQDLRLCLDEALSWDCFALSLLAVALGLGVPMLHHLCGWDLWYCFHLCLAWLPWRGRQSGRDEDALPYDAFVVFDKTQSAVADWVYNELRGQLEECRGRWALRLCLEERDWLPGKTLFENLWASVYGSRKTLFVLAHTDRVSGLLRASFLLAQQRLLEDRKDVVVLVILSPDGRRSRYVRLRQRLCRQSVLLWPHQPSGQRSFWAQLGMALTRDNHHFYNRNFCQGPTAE
# Outline: as §1
# human TLR7 = target: T3, human TLR7 (Homo sapiens, UniProt Q9NYK1); assay: TLR7 inhibition reporter assay (HEK-Blue cells, SEAP reporter, gardiquimod stimulation); details: HEK-Blue cells overexpressing human TLR7, SEAP reporter, gardiquimod 7.5 μM
# T3 construct: host or cells: HEK-Blue cells (HEK293-derived reporter line)
# T3 sequence (Q9NYK1 27-1049): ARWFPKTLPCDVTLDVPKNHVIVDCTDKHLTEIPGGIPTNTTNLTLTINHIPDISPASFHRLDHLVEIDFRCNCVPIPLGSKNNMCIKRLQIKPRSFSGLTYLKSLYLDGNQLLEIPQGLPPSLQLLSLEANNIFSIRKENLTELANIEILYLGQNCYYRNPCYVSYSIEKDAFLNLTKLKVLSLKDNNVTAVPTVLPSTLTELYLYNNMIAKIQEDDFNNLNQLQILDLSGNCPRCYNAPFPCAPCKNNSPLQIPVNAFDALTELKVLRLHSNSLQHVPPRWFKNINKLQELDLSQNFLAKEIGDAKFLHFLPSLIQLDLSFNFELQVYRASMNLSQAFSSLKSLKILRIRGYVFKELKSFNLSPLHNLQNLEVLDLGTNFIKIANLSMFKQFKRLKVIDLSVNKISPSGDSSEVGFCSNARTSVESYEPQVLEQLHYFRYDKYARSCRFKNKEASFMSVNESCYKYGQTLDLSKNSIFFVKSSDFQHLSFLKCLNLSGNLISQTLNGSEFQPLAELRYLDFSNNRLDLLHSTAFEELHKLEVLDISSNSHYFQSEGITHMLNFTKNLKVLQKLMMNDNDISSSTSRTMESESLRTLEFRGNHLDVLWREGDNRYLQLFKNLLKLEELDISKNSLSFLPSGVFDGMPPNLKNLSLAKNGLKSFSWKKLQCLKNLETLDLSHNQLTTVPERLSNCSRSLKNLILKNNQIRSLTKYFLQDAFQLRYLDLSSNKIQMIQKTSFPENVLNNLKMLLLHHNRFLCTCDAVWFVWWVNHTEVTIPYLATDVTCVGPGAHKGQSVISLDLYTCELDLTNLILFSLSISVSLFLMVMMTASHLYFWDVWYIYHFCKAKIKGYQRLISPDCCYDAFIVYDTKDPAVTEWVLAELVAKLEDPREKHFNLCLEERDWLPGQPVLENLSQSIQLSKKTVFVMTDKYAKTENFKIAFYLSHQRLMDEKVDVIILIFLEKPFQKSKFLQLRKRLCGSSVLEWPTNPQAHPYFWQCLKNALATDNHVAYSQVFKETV
# Outline: as §1
IC50 (human TLR8),IC50 (human TLR9),IC50 (human TLR7),SMILES
1000 to 50000 nM,1000 to 50000 nM,> 3130 nM,"Cc1nc2c(-c3[nH]c4ccc(C5CCN(CC(C)(C)O)CC5)cc4c3C(C)C)ccc(C)n2n1 [Example 768, 1-(4-(2-(2,5-dimethyl-[1,2,4]triazolo[1,5-a]pyridin-8-yl)-3-isopropyl-1H-indol-5-yl)piperidin-1-yl)-2-methylpropan-2-ol]"
> 3130 nM,1000 to 50000 nM,100 to 1000 nM,"COc1nc(-c2[nH]c3ccc(C4CCNCC4)cc3c2C(C)C)cn2ncnc12 [Example 47, 6-(3-isopropyl-5-(piperidin-4-yl)-1H-indol-2-yl)-8-methoxy-[1,2,4]triazolo[1,5-a]pyrazine]"
< 100 nM,100 to 1000 nM,< 100 nM,"Cc1nc(CN2CCC(c3ccc4[nH]c(-c5ccnc6[nH]ncc56)c(C(C)C)c4c3)CC2)c2ccccn12 [Example 868, 4-(3-isopropyl-5-(1-((3-methylimidazo[1,5-a]pyridin-1-yl)methyl)piperidin-4-yl)-1H-indol-2-yl)-1H-pyrazolo[3,4-b]pyridine]"
< 100 nM,100 to 1000 nM,< 100 nM,"CC(C)c1c(-c2c[nH]c3ncncc23)[nH]c2ccc(C3CCNCC3)cc12 [Example 13, 5-(3-isopropyl-5-(piperidin-4-yl)-1H-indol-2-yl)-7H-pyrrolo[2,3-d]pyrimidine]"
100 to 1000 nM,100 to 1000 nM,100 to 1000 nM,"CC(C)c1c(-c2cnc3nccn3c2)[nH]c2ccc(C3CCN(CC(=O)N(C)C)CC3)cc12 [Example 363, 2-(4-(2-(imidazo[1,2-a]pyrimidin-6-yl)-3-isopropyl-1H-indol-5-yl)piperidin-1-yl)-N,N-dimethylacetamide]"
< 100 nM,100 to 1000 nM,< 100 nM,"CC(C)c1c(-c2ccnc3[nH]ncc23)[nH]c2ccc(C3CCN(C(=O)CN4CC[C@H](N(C)C)C4)CC3)cc12 [Example 590, (S)-2-(3-(dimethylamino)pyrrolidin-1-yl)-1-(4-(3-isopropyl-2-(1H-pyrazolo [3,4-b]pyridin-4-yl)-1H-indol-5-yl)piperidin-1-yl)ethan-1-one]"
< 100 nM,1000 to 50000 nM,< 100 nM,"CC(C)c1c(-c2ccnc3[nH]ncc23)[nH]c2ccc(C3CCN(Cc4cn5ccccc5n4)CC3)cc12 [Example 862, 4-(5-(1-(imidazo[1,2-a]pyridin-2-ylmethyl)piperidin-4-yl)-3-isopropyl-1H-indol-2-yl)-1H-pyrazolo[3,4-b]pyridine]"
< 100 nM,1000 to 50000 nM,100 to 1000 nM,"Cc1cc(-c2[nH]c3ccc(C4CCN(C5COC5)CC4)cc3c2C(C)C)c(C)n2nnnc12 [Example 740, 6-(3-isopropyl-5-(1-(oxetan-3-yl)piperidin-4-yl)-1H-indol-2-yl)-5,8-dimethyltetrazolo[1,5-a]pyridine]"
100 to 1000 nM,1000 to 50000 nM,100 to 1000 nM,"CCc1c(-c2ccnc3[nH]cc(Cl)c23)[nH]c2ccc(C3CCNCC3)cc12 [Example 39, 3-chloro-4-(3-ethyl-5-(piperidin-4-yl)-1H-indol-2-yl)-1H-pyrrolo[2,3-b]pyridine]"
< 100 nM,100 to 1000 nM,< 100 nM,"Cc1nnn2ccc(-c3[nH]c4ccc(C5CCN(C6CCOCC6)CC5)cc4c3C(C)C)cc12 [Example 700, 5-(3-isopropyl-5-(1-(tetrahydro-2H-pyran-4-yl)piperidin-4-yl)-1H-indol-2-yl)-3-methyl-[1,2,3]triazolo[1,5-a]pyridine]"
< 100 nM,1000 to 50000 nM,< 100 nM,"Cc1cc(-c2[nH]c3ccc(C4CCN(C(=O)CCN(C)C5CC5)CC4)cc3c2C(C)C)cn2nnnc12 [Example 623, 3-(cyclopropyl(methyl)amino)-1-(4-(3-isopropyl-2-(8-methyltetrazolo[1,5-a]pyridin-6-yl)-1H-indol-5-yl)piperidin-1-yl)propan-1-one]"
< 100 nM,1000 to 50000 nM,< 100 nM,"Cc1cc(-c2[nH]c3ccc(C4CCN(CC(=O)N(C)C)CC4)cc3c2C(C)C)nn2ccnc12 [Example 447, 2-(4-(3-isopropyl-2-(8-methylimidazo[1,2-b]pyridazin-6-yl)-1H-indol-5-yl)piperidin-1-yl)-N,N-dimethylacetamide]"
< 100 nM,1000 to 50000 nM,< 100 nM,"COc1cc(-c2[nH]c3ccc(C4CCN(C5COC5)CC4)cc3c2C(C)C)cn2ccnc12 [Example 722, 6-(3-isopropyl-5-(1-(oxetan-3-yl)piperidin-4-yl)-1H-indol-2-yl)-8-methoxyimidazo[1,2-a]pyridine]"
100 to 1000 nM,1000 to 50000 nM,< 100 nM,"CC(C)c1c(-c2cnc3ncnn3c2)[nH]c2ccc(C3CCN(C4COC4)CC3)cc12 [Example 721, 6-(3-isopropyl-5-(1-(oxetan-3-yl)piperidin-4-yl)-1H-indol-2-yl)-[1,2,4]triazolo[1,5-a]pyrimidine]"
